Assay results: patent US6495542B1, “Benzamide derivatives as vasopressin antagonists” (Fujisawa Pharmaceutical Co., Ltd., priority 1998, dated 2002)
Where a name gives a salt, the structure may show the parent alone.

Tests used:
human V2 receptor = target: T1, human V2 receptor (Homo sapiens, UniProt P30518); assay: Vasopressin 2 (V2) receptor binding, 3H-vasopressin competition on membranes of CHO cells expressing human V2 receptor; conditions: human V2 receptor in CHO cells; competition with 0.5 nm 3H-vasopressin, 2 hours at 22° C.
T1 construct: expressed in transfected cells
Text: Vasopressin 2 (V2) Receptor Binding
For binding assays, a receptor cDNA was permanently expressed in Chinese hamster ovary (CHO) cells. A vector directing expression of the cDNA of a human V2 receptor was transfected into the CHO cells, and the clonal cell lines expressing the human V2 receptor were established essentially as described previously (Nakajima, Y., et. al. J. Biol. chem., 267, 2437, 1992).
DNA-transfected cells were harvested and homogenized in ice-cold […] Tris-HCl (pH 7.4), 10 mM MgCl2, 1 mM EDTA and 5 μg/ml p-amidinophenylmethylsulfonyl fluoride (A-PMSF). The homogenate was centrifuged at 500×g for 10 minutes. The supernatant was centrifuged at […] for 1 hour. The final pellet was suspended in 25 mM Tris-HCl buffer (pH 7.4, containing 10 mM MgCl2, 1 mM EDTA and 5 μg/ml A-PMSF), and stored in small aliquots at −80° C.
Competition assays were conducted at equilibrium (2 hours at 22° C.) by using 0.5 nm ^3H-vasopressin (40-87 Ci/mmol; New England Nuclear) in 100 mM Tris-HCl buffer (pH 7.4, containing 5 mM MgCl2, 5 μg/ml A-PMSF, 4 μg/ml leupeptin, 40 μg/ml bacitracin, 20 μg/ml chymostatin and 0.1% bovine serum albimin). Nonspecific binding was determined by using 1 μM vasopressin. After incubation, the reaction mixture was immediately filtered through Whatman glass filter (GF/C). The filter was washed twice with the same buffer. The radioactivity was counted by using a liquid scintillation counter. Competition activity of the test compound was represented by IC50 values.

[1] = target: Vasopressin 1 (VI) Receptor (Rattus norvegicus, UniProt P30560); assay: Vasopressin 1 (V1) receptor binding, rat; conditions: Test 1 V1 receptor binding
Description: (§1) Vasopressin 1 (VI) Receptor Binding
(§2) Competition assays were conducted at equilibrium (15 minutes at 30° C.) by using 1.5 nM ^3H-vasopressin (40-87 Ci/mmol; New England Nuclear) in 100 mM Tris-HCl buffer (pH 7.4). Nonspecific binding was determined by using 1 μM vasopressin. After incubation, the reaction was terminated by adding 5 ml of ice-cold 100 mM Tris-HCl buffer (pH 7.4), and then filtered immediately through Whatman glass filter (GF/C). The filter was washed twice with the same buffer. The glass filter was placed in a liquid scintillation cocktail, and the radioactivity thereof was counted by using a liquid scintillation counter. Competition activity of the test compound was represented by IC50 values.

[2] = target: T2, Vasopressin 1 (VI) Receptor (Homo sapiens, UniProt P37288); assay: Vasopressin 1 (V1) receptor binding, 3H-vasopressin competition on human platelet membranes; conditions: competition with 1.5 nM 3H-vasopressin, 15 minutes at 30° C.
T2 construct: Platelet-rich plasma (PRP) was prepared by centrifugation of whole blood; from tissue; host or cells: platelet membranes from blood of a normal subject
Description: as §1
Blood was obtained from normal subject by venipuncture. Platelet-rich plasma (PRP) was prepared by centrifugation of whole blood at 200×g for 10 minutes. PRP was centrifuged at 45,000×g for 30 minutes. The remaining pellet was resuspended in 10 volume of ice-cold 100 mM Tris-HCl buffer (pH 7.4, containing 5 mM MgCl2, 0.1% bovine serum albumin and 1 mM EDTA), and again centrifuged at 45,000×g for 30 minutes. The final pellet was resuspended in 100 mM Tris-HCl buffer. The resulting suspension was used immediately for the binding assay.
as §2

T1 sequence (P30518 whole entry): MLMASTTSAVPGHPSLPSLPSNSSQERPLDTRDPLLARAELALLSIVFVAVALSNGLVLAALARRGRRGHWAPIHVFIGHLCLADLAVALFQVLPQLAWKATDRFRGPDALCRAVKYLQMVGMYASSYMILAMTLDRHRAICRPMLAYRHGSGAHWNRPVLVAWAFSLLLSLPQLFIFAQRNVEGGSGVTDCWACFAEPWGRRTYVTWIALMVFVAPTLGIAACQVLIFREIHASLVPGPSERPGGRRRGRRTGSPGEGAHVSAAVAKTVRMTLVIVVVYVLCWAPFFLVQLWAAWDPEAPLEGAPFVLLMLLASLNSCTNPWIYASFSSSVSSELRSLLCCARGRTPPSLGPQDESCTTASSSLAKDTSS
T2 sequence (P37288 whole entry): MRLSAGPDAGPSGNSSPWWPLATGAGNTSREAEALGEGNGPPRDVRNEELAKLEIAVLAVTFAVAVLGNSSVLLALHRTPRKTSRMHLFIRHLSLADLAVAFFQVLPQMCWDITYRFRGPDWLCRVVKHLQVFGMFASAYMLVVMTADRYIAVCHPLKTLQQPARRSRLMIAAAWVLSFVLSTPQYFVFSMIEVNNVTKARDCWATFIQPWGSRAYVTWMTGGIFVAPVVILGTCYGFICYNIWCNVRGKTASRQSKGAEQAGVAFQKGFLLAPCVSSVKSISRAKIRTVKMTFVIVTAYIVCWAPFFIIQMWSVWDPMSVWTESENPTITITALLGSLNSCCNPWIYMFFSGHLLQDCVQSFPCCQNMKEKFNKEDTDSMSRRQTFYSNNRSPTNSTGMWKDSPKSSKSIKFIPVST
Vasopressin 1 (VI) Receptor (Rattus norvegicus, UniProt P30560), sequence (P30560 whole entry): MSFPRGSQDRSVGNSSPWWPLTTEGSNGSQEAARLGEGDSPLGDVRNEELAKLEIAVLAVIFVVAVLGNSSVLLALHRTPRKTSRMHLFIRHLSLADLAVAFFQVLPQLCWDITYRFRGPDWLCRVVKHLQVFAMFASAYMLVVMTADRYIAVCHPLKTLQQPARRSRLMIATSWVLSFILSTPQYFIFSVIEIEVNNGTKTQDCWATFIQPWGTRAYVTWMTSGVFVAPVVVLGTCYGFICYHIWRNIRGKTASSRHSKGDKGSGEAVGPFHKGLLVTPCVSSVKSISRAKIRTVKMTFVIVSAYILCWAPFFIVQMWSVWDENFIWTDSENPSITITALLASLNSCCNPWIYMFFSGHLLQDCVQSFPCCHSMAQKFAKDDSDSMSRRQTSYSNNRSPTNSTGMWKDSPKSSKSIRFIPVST

SMILES	IC50 (human V2 receptor) [nM]	IC50 [1] [nM]	IC50 [2] [nM]
COc1cc(C(=O)N2CCCCc3ccccc32)ccc1C(=O)Nc1cccc2[nH]cnc12 [Example 50, N-(1H-Benzimidazol-4-yl)-2-methoxy-4-(2,3,4,5-tetrahydro-1H-1-benzazepin-1-yl)carbonylbenzamide hydrochloride]	69	1.8	0.55
COc1cc(C(=O)N2CCCCc3ccccc32)ccc1C(=O)Nc1cccc2[nH]c(N(C)CCN)nc12 [Example 76, N-[2-[N-(2-Aminoethyl)-N-methylamino]-1H-benzimidazol-4-yl]-2-methoxy-4-(2,3,4,5-tetrahydro-1H-1-benzazepin-1-yl)carbonylbenzamide dihydrochloride]	140	0.2	0.08
COc1cc(C(=O)N2CCCCc3ccccc32)ccc1C(=O)Nc1cccc2[nH]c(C)nc12 [Example 2, 2-methoxy-N-(2-methyl-1H-benzimidazol-4-yl)-4-(2,3,4,5-tetrahydro-1H-1-benzazepin-1-yl)-carbonylbenzamide]	241	2.1	0.41
CCc1nc2c(NC(=O)c3ccc(C(=O)N4CCCCc5ccccc54)cc3OC)cccc2[nH]1 [Example 55, N-(2-Ethyl-1H-benzimidazol-4-yl)-2-methoxy-4-(2,3,4,5-tetrahydro-1H-1-benzazepin-1-yl)carbonylbenzamide hydrochloride]	104	1.7	0.7
COc1cc(C(=O)N2CCCCc3ccccc32)ccc1C(=O)Nc1cccc2[nH]c(C(=O)N(C)C)nc12 [Example 73, N-[2-(N,N-Dimethylcarbamoyl)-1H-benzimidazol-4-yl]-2-methoxy-4-(2,3,4,5-tetrahydro-1H-1-benzazepin-1-yl)carbonylbenzamide]	159	2.2	0.5
